According to the supplement of paper PMC12533247:

Tests used:
primary keratinocytes = experiment: % change in live cells vs DMSO control; higher = less cytotoxic; details: time (h post treatment): 20
Description: (§1)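 Cytotoxicity in uninfected 2D primary donor keratinocytes (20 h post treatment) and fibroblasts (48 h post treatment), measured with NucSpot live/dead dyes on IncuCyte. Live cells are normalised to the 0.2% DMSO control and shown as % change. Three biological replicates for each of donors 3, 4 and 5.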

[1] = test system: primary dermal fibroblasts; experiment: as above; details: time (h post treatment): 48
Description: as §1

O=C(Nc1ccc([N+](=O)[O-])cc1Cl)c1cc(Cl)ccc1O [Niclosamide]
% change in live cells [%]
Details | 0.082305 µM | 0.246914 µM | 0.740741 µM | 2.22222 µM | 6.66667 µM | 20 µM | 60 µM
[1], donor: 3 | -18.7 | -17 | -16 | -24.7 | -35 | -49.7 | -56
[1], donor: 4 | 3 | 2.67 | -0.333 | -2 | -9 | -41.7 | -38
[1], donor: 5 | 5 | 1.67 | -1 | -2.67 | -26 | -63 | -74.33
primary keratinocytes, donor: 3 | -8 | -11.7 | -30 | -14.3 | -23 | -61.7 | -68
primary keratinocytes, donor: 4 | -13 | -20.7 | -20.7 | -15.3 | -13 | -25.7 | -69.7
primary keratinocytes, donor: 5 | -11.7 | -11.3 | -8 | -13.3 | -9 | -26.7 | -54.7

Cc1nc(N(C)C(=O)Cc2ccc(-c3ccccn3)cc2)sc1S(N)(=O)=O [Pritelivir]
% change in live cells [%]
Details | 0.082305 µM | 0.246914 µM | 0.740741 µM | 2.22222 µM | 6.66667 µM | 20 µM | 60 µM
[1], donor: 3 | -10.3 | -8.67 | -8 | -9 | -11 | -10 | -10
[1], donor: 4 | -2.67 | -1 | -6.33 | -2 | 1.33 | 7 | 3.33
[1], donor: 5 | 7.67 | 7.67 | 3.67 | 0.667 | -1 | -1 | -13
primary keratinocytes, donor: 3 | -3.33 | -6.67 | -8.33 | -6.33 | -0.667 | -38 | -78.3
primary keratinocytes, donor: 4 | -1 | -18.3 | -6 | -4.67 | -44.3 | -28.7 | -61.7
primary keratinocytes, donor: 5 | -1.67 | -7.33 | -0.667 | -5.33 | 0.333 | 7.67 | -20

CC1(C)CC(=O)c2c(C(F)(F)F)nn(-c3ccc(C(N)=O)c(N[C@H]4CC[C@H](O)CC4)c3)c2C1 [SNX-2112]
% change in live cells [%]
Details | 0.082305 µM | 0.246914 µM | 0.740741 µM | 2.22222 µM | 6.66667 µM | 20 µM | 60 µM
[1], donor: 3 | -17.7 | -20.7 | -23 | -22.3 | -22.7 | -22.7 | -21
[1], donor: 4 | 14.3 | 4.67 | 0.333 | 0.667 | 6.33 | 7.33 | 1
[1], donor: 5 | 9 | -1.67 | -1.67 | -8.67 | -10.3 | -13.7 | -32.3
primary keratinocytes, donor: 3 | -14.3 | -38.3 | -40.3 | -43.7 | -49 | -59.3 | -79.3
primary keratinocytes, donor: 4 | 4.33 | -29 | -53.3 | -58.7 | -70 | -74 | -74
primary keratinocytes, donor: 5 | -22 | -60.7 | -72.3 | -77 | -79 | -76.7 | -57.7

C=CC(=O)N1CC/C(=C\c2ccc(F)c([N+](=O)[O-])c2)C(=O)/C(=C/c2ccc(F)c([N+](=O)[O-])c2)C1 [VLX1570]
% change in live cells [%]
Details | 0.082305 µM | 0.246914 µM | 0.740741 µM | 2.22222 µM | 6.66667 µM | 20 µM | 60 µM
[1], donor: 3 | -13 | -15.3 | -24 | -46.7 | -100 | -101.3 | -98.7
[1], donor: 4 | 2.33 | 0 | -1.33 | -3 | -3 | -44 | -116
[1], donor: 5 | 2 | 4.67 | 4.33 | -1.67 | -20.7 | -98 | -96.7
primary keratinocytes, donor: 3 | -11.3 | -24 | -37.7 | -54 | -58.3 | -85.3 | -95
primary keratinocytes, donor: 4 | -13.3 | -18 | -13 | -9.33 | -66 | -70 | -99.33
primary keratinocytes, donor: 5 | -6.33 | -10 | -11 | -10.7 | -39 | -74.7 | -97.67

O=C(/C=C\n1cnc(-c2cc(C(F)(F)F)cc(C(F)(F)F)c2)n1)NNc1ccccn1 [Verdinexor]
% change in live cells [%]
Details | 0.082305 µM | 0.246914 µM | 0.740741 µM | 2.22222 µM | 6.66667 µM | 20 µM | 60 µM
[1], donor: 3 | -24 | -20.3 | -22.3 | -23.3 | -24.7 | -27.7 | -40.3
[1], donor: 4 | -8.33 | -9.67 | -14 | -9.67 | -11 | -13.3 | -31.3
[1], donor: 5 | -0.667 | -6.33 | -10.7 | -15.7 | -18.7 | -23.7 | -44
primary keratinocytes, donor: 3 | -11 | -23.3 | -38.7 | -44.3 | -60.3 | -68.3 | -75.3
primary keratinocytes, donor: 4 | -9 | -17 | -12 | -32 | -42.3 | -74.7 | -86.7
primary keratinocytes, donor: 5 | -5.67 | -12.7 | -16.7 | -23.3 | -31.7 | -74 | -82
